Laboratory results published in patent publication US4971969A, “Pharmaceutical composition containing 1-(mono- or bis(trifluoromethyl)-2-pyridinyl)piperazines” (priority 1988, dated 1990).
Like-named read-outs stand apart in the source and are kept apart here.

What was measured:
[1] = target: T1, 5HT1A receptors (Rattus norvegicus, UniProt P19327); assay: Binding test: displacement of [^3 H]-8-OH-DPAT from membranes of the rat hippocampus (5HT1A)
T1 construct: membranes of the rat hippocampus; from tissue; host or cells: rat hippocampus membranes
T1 sequence (P19327 1-422): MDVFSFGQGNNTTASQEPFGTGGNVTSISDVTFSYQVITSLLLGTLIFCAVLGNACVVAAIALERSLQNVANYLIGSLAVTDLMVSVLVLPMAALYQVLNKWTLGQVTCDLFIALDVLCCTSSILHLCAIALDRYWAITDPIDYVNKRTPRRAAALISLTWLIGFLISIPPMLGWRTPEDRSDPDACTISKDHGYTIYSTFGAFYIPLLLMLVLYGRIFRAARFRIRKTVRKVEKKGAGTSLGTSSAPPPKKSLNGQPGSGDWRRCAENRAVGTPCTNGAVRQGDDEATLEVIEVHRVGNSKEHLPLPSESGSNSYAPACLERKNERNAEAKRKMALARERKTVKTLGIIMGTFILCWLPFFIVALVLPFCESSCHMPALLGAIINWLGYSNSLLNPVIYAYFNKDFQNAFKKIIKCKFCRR
Description: (§1) This test is carried out according to the protocol of PEROUTKA, S.J. ["Selective labelling of 5-HT1A and 5HT1B binding sites in bovine brain" BRAIN RESEARCH 344, p. 167-171 (1985)]. In this test, the affinity for 5HT1A receptors is determined by the Capacity of the compounds to displace [^3 H]-8-OH-DPAT from the membranes of the rat hippocampus; similarly, the affinity for 5HT1B receptors is determined by the capacity of the compounds to displace [^3 H]-5HT from the membranes of the rat striatum.
(§2) The results recorded in Table II below show the pKi values calculated according to the abovementioned protocol.

[2] = target: T2, 5HT1B receptors (Rattus norvegicus, UniProt P28564); assay: Binding test: displacement of [^3 H]-5HT from membranes of the rat striatum (5HT1B)
T2 construct: membranes of the rat striatum; from tissue; host or cells: rat striatum membranes
Description: as §1, §2

[3] = tested on: 5HT1B; assay: Penile erection test (5HT1B agonist potential); assay type: in vivo; conditions: rats; for minimal effective dose: Rattus norvegicus, sc, administered subcutaneously, read-out: ERECTION OF THE PENIS, minimum dose which leads to an erection of the penis, subcutaneous; for ERECTION OF THE PENIS, activity when administered orally: administered orally (PO)
Description: This test, carried out according to the protocol of BERENDSEN H.H.G. and BROEKKAMP C.L.E. ["Drug induced penile erections in rats: indication of serotonin 1B receptor mediation--EUROPEAN J. PHARMACOL. 135, 279-287 (1987")]enables the 5HT1B agonist potentials of the various compounds to be assessed.
The results recorded in Table II below show the minimum dose in mg.kg^-1 administered subcutaneously which leads to an erection of the penis in rats, as well as the activity when administered orally.

[4] = rat hippocampus membranes, [^3 H]-8-OH-DPAT, read-out: BINDING pKi 5HT1A (converted)
[5] = rat striatum membranes, [^3 H]-5HT, read-out: BINDING pKi 5HT1B (converted)

T2 sequence (P28564 whole entry): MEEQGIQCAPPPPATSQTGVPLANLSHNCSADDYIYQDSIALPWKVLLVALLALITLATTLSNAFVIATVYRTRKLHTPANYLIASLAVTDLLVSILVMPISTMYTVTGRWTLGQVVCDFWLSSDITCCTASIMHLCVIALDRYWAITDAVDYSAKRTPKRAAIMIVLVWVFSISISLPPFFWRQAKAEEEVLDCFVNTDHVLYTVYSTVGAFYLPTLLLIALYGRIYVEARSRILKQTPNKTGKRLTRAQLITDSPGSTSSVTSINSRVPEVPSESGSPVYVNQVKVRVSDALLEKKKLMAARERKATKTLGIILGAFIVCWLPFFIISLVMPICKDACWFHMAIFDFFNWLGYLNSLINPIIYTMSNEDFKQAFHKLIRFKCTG

Q: What does the source list for `FC(F)(F)c1ccc(N2CCNCC2)nc1` [Compound 1, 1-(5-trifluoromethyl-2-pyridinyl)piperazine]?
A: Ki [1, 4]: > 10000 nM; Ki [2, 5]: 501 nM; minimal effective dose [3]: 1 mg/kg; ERECTION OF THE PENIS, activity when administered orally [3]: > 46 mg/kg

Q: Which results are given for `FC(F)(F)c1ccnc(N2CCNCC2)c1` [Compound 2, 1-(4-trifluoromethyl-2-pyridinyl)piperazine]?
A: Ki [1, 4]: 2510 nM; Ki [2, 5]: 126 nM; minimal effective dose [3]: 1 mg/kg; ERECTION OF THE PENIS, activity when administered orally [3]: 2.2 mg/kg

Q: Which results are given for `FC(F)(F)c1ccc(N2CCNCC2)nc1Cl` [Compound 3]?
A: Ki [1]: 2510 nM; Ki [2]: 100 nM; minimal effective dose [3]: 0.46 mg/kg; ERECTION OF THE PENIS, activity when administered orally [3]: 4.6 mg/kg

Q: How did the Ki [1, 4] turn out when `FC(F)(F)c1cnc(N2CCNCC2)cc1C(F)(F)F` [Compound 4, 1-[4,5-bis(trifluoromethyl)-2-pyridinyl]piperazine] was run?
A: The Ki was 79400 nM.

Q: What about the Ki [2, 5] of the same compound?
A: Its Ki is 398 nM.

Q: And the minimal effective dose [3]?
A: Its minimal effective dose is 10 mg/kg.

Q: What about the “ERECTION OF THE PENIS, activity when administered orally” value [3] of the same compound?
A: The value was 2.2 mg/kg.

Q: With `FC(F)(F)c1cnc(N2CCNCC2)c(Cl)c1` [Compound 5, 1-(3-chloro-5-trifluoromethyl-2-pyridinyl)piperazine] as the compound, how does the Ki [1, 4] read?
A: Its Ki is 3980 nM.

Q: And the Ki [2, 5]?
A: Its Ki is 501 nM.

Q: What about the minimal effective dose [3] of the same compound?
A: The minimal effective dose was 4.6 mg/kg.

Q: What about the “ERECTION OF THE PENIS, activity when administered orally” value [3] of the same compound?
A: The value was 10 mg/kg.
